Data set [1] concerns the target T1, Aβ40 fibrils (Homo sapiens, UniProt P05067).
Another data set concerns the target Aβ40 (Homo sapiens, UniProt P05067). Put plainly: Inhibition of Aβ40 fibrillogenesis, thioflavin T fluorescence assay. In kind it is biochemical.
A further data set deals with COS cells. The data set is described as follows: COS cell uptake of fluorescent peptides, fluorescence microscopy and HPLC reisolation. The data set is classed as cell-based. As to the method:
Briefly, COS cells, were plated on coverslips, and incubated overnight in the presence of 4 μM to […] of the Anth-A16-20 peptide. The cells on coverslips were then washed extensively with PBS, fixed for one hour with a 3.7% formaldehyde solution and mounted on a slide. The cells were examined by fluorescence microscopy using a DAPI filter.
COS cells, plated on coverslips, were incubated overnight in the presence of 4 μM to 40 μM of the Anth-Aβ16-20 peptide. The cells on coverslips were then washed extensively with PBS, fixed for one hour with a 3.7% formaldehyde solution and mounted on a slide. The cells were examined by fluorescence microscopy using a DAPI filter.
In this experiment, Anth-Aβ16-20m was incubated with COS cells for eight hours. […] The cells were then lysed by the addition of Triton X-100 to 0.1% (v/v), and the lysate was analyzed by HPLC. The HPLC solvent system contained 0.1% trifluoroacetic acid in water (solvent A) and 0.1% trifluoroacetic acid in acetonitrile (solvent B). The peptide was eluted with a gradient of 0%-60% solvent B in 60 minutes. Fractions (1 ml) from the HPLC were collected and analyzed by fluorescence spectroscopy. The excitation and emission wavelengths were 346 nm and 435 nm, respectively.

The nature of data set [2]: Solubility in aqueous media and organic solvents.
Data set [3] in a line: Fibril formation by the peptide alone (electron microscopy, Congo Red). The data set is classed as physicochemical. As to the method:
After incubation of the inhibition and disassembly samples for the appropriate period of time, an aliquot of each sample was applied to a glow-discharge, 400-mesh, carbon-coated support film and stained with 1% uranyl acetate. Micrographs were recorded using Philips EM300 at magnifications of 17,000, 45,000 and 100,000.
The Congo Red binding assay was performed essentially as described in other publications (Klunk 1989). An aliquot of peptide solution containing 50 μg of peptide was added to 1 ml of a […] solution of Congo Red in 100 mM phosphate buffer, pH 7.4. The solution was incubated for 15 min at room temperature and then the absorbance was measured from 400-600 nm.
For the electron microscopy, aliquots of the inhibition and disassembly samples were applied to a glow-discharge, 400-mesh, carbon-coated support film and stained with 1% uranyl acetate. Micrographs were recorded using a Philips EM300 at magnifications of 17,000, 45,000 and 100,000.

The target in a further data set is Aβ1-40 fibrils (Homo sapiens, UniProt P05067). Put plainly: Congo Red binding assay of Aβ1-40 fibril inhibition and disassembly. The data set is classed as biochemical. As to the method: Thioflavin T fluorescence is well known as a sensitive assay for the formation of amyloid fibrils. […] The Congo Red binding assay was performed essentially as described in other publications (Klunk 1989). An aliquot of peptide solution containing 50 μg of peptide was added to 1 ml of a […] solution of Congo Red in 100 mM phosphate buffer, pH 7.4. The solution was incubated for 15 min at room temperature and then the absorbance was measured from 400-600 nm.

For data set [4], the target named is T1, Aβ40 fibrils. The data set is described as follows: Electron microscopy of Aβ40 fibril inhibition and disassembly samples. In kind it is biochemical. The settings on record: Aβ40 incubated with inhibitor peptide.
The target of a further data set is chymotrypsin (Bos taurus, UniProt P00766). Put plainly: Chymotrypsin digestion (protease resistance), RP-HPLC. The data set is classed as in vitro ADME. The settings on record: 24 h at 37° C., 0.1 mg/ml chymotrypsin, pH 8.4. As to the method:
Peptides were incubated for 24 h at 37 C with […] chymotrypsin. The percentage of undigested peptide was determined by RC-HPLC as described in the Materials and Methods. […] The arrow marks the position of the intact.
The peptides were dissolved in 0.5% ammonium bicarbonate at a concentration of 1.0 mg/ml. The pH of the solution was 8.4. Chymotrypsin (Worthington Biochemical Corporation) was added to the peptide solutions so that the final concentration was 0.1 mg/ml. Samples were incubated at 37° C. After twenty-four hrs, the samples were frozen and lyophilized. The samples were analyzed by reverse-phase HPLC using an analytical C 18 column (Rainin Microsorb) and eluted, using a 60 min gradient from 10-70% acetonitrile, containing 0.1% (v/v) TFA. The loss of intact peptide and appearance of fragments were quantitated by integration of the appropriate peaks. Results were expressed as a percent digestion of the peptides. In addition, identities of the peaks were confirmed by electrospray mass spectrometry.
The peptides were dissolved in 0.5% ammonium bicarbonate at a concentration of 1.0 mg/ml. […] After twenty-four hours, the samples were lyophilized and then analyzed by reverse-phase HPLC (Rainin-Microsorb C18 column) and a water-acetonitrile (0.1% (v/v) TFA) gradient (10-70% acetonitrile over one h).

Converted amounts (≈) assume the structure as drawn. “Also recorded” adds a separate entry of the source. Square brackets hold non-standard residues; d marks the D form. Peptide text beside a SMILES is read from it. NMeF = CN[C@@H](Cc1ccccc1)C(=O)O; PhLac = O=C(O)[C@@H](O)Cc1ccccc1; NMeL = CN[C@@H](CC(C)C)C(=O)O; NMeV = CN[C@H](C(=O)O)C(C)C; Hiv = CC(C)[C@H](O)C(=O)O; NMeA = CN[C@@H](C)C(=O)O Where only a bound is given, the exact number is not on record here.

The solubility is how much of the substance goes into solution per volume.

Sequence of Aβ40 (P05067 672-711): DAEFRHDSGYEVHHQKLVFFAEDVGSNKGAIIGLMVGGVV
T1 sequence (P05067 672-711): as above
Sequence of Aβ1-40 fibrils (P05067 672-711): as above

Consider `CC(=O)N[C@@H](CCCCN)C(=O)N[C@@H](CC(C)C)C(=O)N[C@H](C(=O)N[C@@H](Cc1ccccc1)C(=O)N[C@@H](Cc1ccccc1)C(N)=O)C(C)C` [Ac-Aβ16-20, Ac-NH-KLVFF-CONH2, reference compound], for which the “disassembly of pre-formed Aβ40 fibrils (in words)” value at Aβ40 fibrils [1] (thioflavin fluorescence) is reported as “disassembled pre-formed”. Further, on Aβ40, the “Inhibition of Fibrillogenesis ICmax” value is reported as 100 and the “Inhibition of Fibrilogenesis ICmax” value turned out to be 100%.
In the case of `CNc1ccccc1C(=O)N[C@@H](CCCCN)C(=O)N[C@@H](CC(C)C)C(=O)N[C@H](C(=O)N[C@@H](Cc1ccccc1)C(=O)N[C@@H](Cc1ccccc1)C(N)=O)C(C)C` [Anth-Aβ16-20], the “Fibril Disassembly ICmax” value at Aβ40 fibrils [1] is recorded as 100%. In addition, at Aβ40, the “Inhibition of Fibrilogenesis ICmax” value was 100%. Moreover, the “fluorescence of COS cells” value in the data set with COS cells (peptide concentration 20 μM) is recorded as “Strong fluorescence”; with COS cells (peptide levels below 4 μM), “Very weak fluorescence”.
Regarding `CNc1ccccc1C(=O)N[C@@H](CCCCN)C(=O)N(C)[C@@H](CC(C)C)C(=O)N[C@H](C(=O)N(C)[C@@H](Cc1ccccc1)C(=O)N[C@@H](Cc1ccccc1)C(N)=O)C(C)C` [Anth-Aβ16-20m, Anth-NH—K(me-L)V(me-F)F—CONH2], the “Inhibition ICmax” value at Aβ40 is listed as 100. In the data set on COS cells (overnight incubation), the “integrity of peptide internalized by COS cells and reisolated (HPLC)” value is “not modified or degraded”. The “fluorescence of COS cells” value in the data set with COS cells (peptide levels below 4 μM) is given as “Very weak fluorescence”. For the same molecule, the “intracellular fluorescence / permeation of COS cell membranes” value in the data set with COS cells (twelve hours incubation) is given as “permeates cell membranes”.
As for `CC(=O)N[C@@H](CCCCN)C(=O)N[C@@H](CC(C)C)C(=O)N[C@H](C(=O)N[C@@H](Cc1ccccc1)C(=O)N[C@@H](Cc1ccccc1)C(N)=O)C(C)C` [Aβ16-20, reference compound], the solubility in data set [2] is approximately 1000 µM (≈ 694 µg/mL). For the same molecule, the “Inhibition ICmax” value at Aβ40 is listed as 89. Moreover, the “fibril formation by the peptide alone” value in data set [3] is “aggregates to form amyloid fibrils; also recorded: bind Congo Red”.
For the molecule `CC(=O)N[C@@H](CCCCN)C(=O)N[C@@H](CC(C)C)C(=O)O[C@H](C(=O)N[C@@H](Cc1ccccc1)C(=O)O[C@@H](Cc1ccccc1)C(N)=O)C(C)C` [Aβ16-20e, Ac—NH—KLesterVFesterF—CONH2] (Ac-KL[Hiv]F[PhLac]-NH2), the “Disassembly ICmax” value on Aβ40 fibrils [1] was 100. Besides, at Aβ40, the “Inhibition ICmax” value came out at 100. Besides, on Aβ1-40 fibrils (disassembly), the “Congo Red spectrum, pre-formed Aβ1-40 fibrils to which inhibitor was added” value is recorded as “identical to the control spectrum of Congo Red alone”. Moreover, at Aβ1-40 fibrils (inhibition), the “Congo Red spectrum, Aβ1-40 incubated with inhibitor” value was “identical to the control spectrum of Congo Red alone”. In addition, the “fibrillar material by electron microscopy, inhibition samples” value on Aβ40 fibrils [4] is listed as “Fibrillar material was not observed”. Further, in data set [3], the “fibril formation by the peptide alone” value is listed as “does not cause a change in the absorbance spectrum of Congo Red”.
Consider `CC(=O)N[C@@H](CCCCN)C(=O)N[C@@H](CC(C)C)C(=O)N(C)[C@H](C(=O)N[C@@H](Cc1ccccc1)C(=O)N(C)[C@@H](Cc1ccccc1)C(N)=O)C(C)C` [Aβ16-20m2], for which the “solubility in aqueous media (in words)” value in data set [2] is given as “highly soluble in aqueous media”.
For the molecule `CC(C)C[C@H](NC(=O)[C@@H](N)CCCCN)C(=O)N[C@H](C(=O)N[C@@H](Cc1ccccc1)C(=O)N[C@@H](Cc1ccccc1)C(=O)N[C@@H](C)C(=O)N[C@@H](CCC(=O)O)C(N)=O)C(C)C` [Aβ16-22, NH2-KLVFFAE-CONH2] (H-KLVFFAE-NH2), on Aβ40, the “Inhibition of Fibrillogenesis ICmax” value is listed as 23.0, the “Inhibition of Fibrilogenesis ICmax” value came out at 23.0%, the “effect on Aβ40 fibril formation (in words)” value (“effect” below) was “relatively modest inhibitory effect” and the inhibition of fibrillogenesis is 10-20%. The chymotrypsin digestion result on chymotrypsin is given as “cleaved by chymotrypsin”.
For the molecule `CC(C)C[C@H](NC(=O)[C@@H](N)CCCCN)C(=O)N(C)[C@H](C(=O)N(C)[C@@H](Cc1ccccc1)C(=O)N(C)[C@@H](Cc1ccccc1)C(=O)N(C)[C@@H](C)C(=O)N[C@@H](CCC(=O)O)C(N)=O)C(C)C` [Aβ16-22m(4), NH2-KL(me-V)(me-F)(me-F)(me-A)-E-CONH2] (H-KL[NMeV][NMeF][NMeF][NMeA]E-NH2), in data set [2], the “solubility in aqueous media (in words)” value is “highly soluble in water”. Moreover, at Aβ40, the “Inhibition of Fibrillogenesis ICmax” value worked out at 100 and the “Inhibition of Fibrilogenesis ICmax” value was determined as 100%.
With `CC(C)C[C@@H](C(=O)N[C@H](C(=O)N(C)[C@@H](Cc1ccccc1)C(=O)N[C@@H](Cc1ccccc1)C(=O)N(C)[C@@H](C)C(=O)N[C@@H](CCC(=O)O)C(N)=O)C(C)C)N(C)C(=O)[C@@H](N)CCCCN` [Aβ16-22m, NH2-K(me-L)V(me-F)F(me-A)-E-CONH2] (H-K[NMeL]V[NMeF]F[NMeA]E-NH2), the “solubility in aqueous media (in words)” value in data set [2] is “highly soluble in aqueous solutions; also recorded: highly soluble in aqueous media”. Besides, the “solubility relative to unmethylated congener” value in data set [2] (physiological pH and ionic strength) was 20-40 times. Also, on Aβ40, the “Inhibition of Fibrillogenesis ICmax” value turned out to be 100, the “Inhibition of Fibrilogenesis ICmax” value is given as 100%, the “effect” value is “prevented fibril formation of Aβ40 in a dose dependent manner” and the “molar excess of inhibitor giving complete elimination of thioflavin fluorescence (complete inhibition)” value was more than 30. In addition, the chymotrypsin digestion entry at chymotrypsin is given as “complete resistance; also recorded: highly resistant”. For the same molecule, the “fibrillar material by electron microscopy, inhibition samples” value at Aβ40 fibrils [4] is on record as “complete lack of fibrils”. Also, the “fibril formation by the peptide alone” value in data set [3] was “no fibrillar or aggregated material”.
`CC(C)C[C@@H](C(=O)N[C@H](C(=O)N(C)[C@@H](Cc1ccccc1)C(=O)N[C@@H](Cc1ccccc1)C(=O)N(C)[C@@H](C)C(=O)N[C@@H](CCCCN)C(N)=O)C(C)C)N(C)C(=O)[C@@H](N)CCC(=O)O` [Aβ16-22mR, NH2-E(me-L)V(me-F)F(me-A)-K-CONH2] (H-E[NMeL]V[NMeF]F[NMeA]K-NH2): in data set [2], the “solubility in aqueous media (in words)” value was “highly soluble in aqueous solutions”. Further, on Aβ40, the “Inhibition of Fibrillogenesis ICmax” value is listed as 100, the “Inhibition of Fibrilogenesis ICmax” value is on record as 100% and the “effect” value is reported as “prevented fibril formation of Aβ40 in a dose dependent manner”.
As for `CC(C)[C@H](NC(=O)[C@H](C(C)C)N(C)C(=O)[C@H](C)NC(=O)[C@H](C)NC(=O)[C@H](C)NC(=O)[C@H](C)N(C)C(=O)[C@H](C)NC(=O)CN)C(N)=O` [PrPm, NH2-GA(me-A)AAA(me-V)V-CONH2] (H-GA[NMeA]AAA[NMeV]V-NH2), at Aβ40, the “Inhibition of Fibrillogenesis ICmax” value is listed as 8.6, the “Inhibition of Fibrilogenesis ICmax” value was 8.6% and the “effect” value is “no effect”.

The record behind these values is patent US20030130484A1, “Inhibitors and disassemblers of fibrillogenesis” (priority 2001, published 2003).
